Reference: PubChem BioAssay AID192 (DTP/NCI, 2004)
Values joined by “and” are separate entries in the source; they are usually repeats but may differ in a detail not shown here. Identical values can stand only once. Toxic doses and inconclusive results are not listed.

Test system: BDF1 mice, B16 melanoma ip, median survival T/C
Test: NCI In Vivo Anticancer Drug Screen. Data for tumor model B16 Melanoma (intraperitoneal) in B6D2F1 (BDF1) mice
Settings: endpoint: median survival time, higher = longer survival
Procedure, shortened: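 The ratio T/C compares compound-treated mice with vehicle-treated controls, using survival or tumor size as the endpoint in a transplantable tumor model.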

[1] = dose: 50.0 mg/kg/injection, schedule: Q01DX009 (ip), vehicle: Klucel (hydroxypropylcellulose) (HPC)
[2] = dose: 100.0 mg/kg/injection, schedule: Q01DX009 (ip), vehicle: Klucel (hydroxypropylcellulose) (HPC)
[3] = dose: 100.0 mg/kg/injection, schedule: Q04DX003 (ip), vehicle: Klucel (hydroxypropylcellulose) (HPC)
[4] = dose: 200.0 mg/kg/injection, schedule: Q01DX009 (ip), vehicle: Klucel (hydroxypropylcellulose) (HPC)
[5] = dose: 200.0 mg/kg/injection, schedule: Q04DX003 (ip), vehicle: Klucel (hydroxypropylcellulose) (HPC)
[6] = dose: 100.0 mg/kg/injection, schedule: Q01DX009 (ip), vehicle: saline with Tween-80
[7] = dose: 200.0 mg/kg/injection, schedule: Q01DX009 (ip), vehicle: saline with Tween-80
[8] = dose: 400.0 mg/kg/injection, schedule: Q01DX009 (ip), vehicle: saline with Tween-80
[9] = dose: 25.0 mg/kg/injection, schedule: Q01DX009 (ip), vehicle: saline
[10] = dose: 50.0 mg/kg/injection, schedule: Q01DX009 (ip), vehicle: saline
[11] = dose: 100.0 mg/kg/injection, schedule: Q01DX009 (ip), vehicle: saline
[12] = dose: 50.0 mg/kg/injection, schedule: Q01DX009 (ip), vehicle: saline with Tween-80
[13] = dose: 6.25 mg/kg/injection, schedule: Q01DX009 (ip), vehicle: Klucel (hydroxypropylcellulose) (HPC)
[14] = dose: 12.5 mg/kg/injection, schedule: Q01DX009 (ip), vehicle: Klucel (hydroxypropylcellulose) (HPC)
[15] = dose: 25.0 mg/kg/injection, schedule: Q01DX009 (ip), vehicle: Klucel (hydroxypropylcellulose) (HPC)
[16] = dose: 25.0 mg/kg/injection, schedule: Q01DX009 (ip), vehicle: saline with Tween-80
[17] = dose: 400.0 mg/kg/injection, schedule: Q04DX003 (ip), vehicle: Klucel (hydroxypropylcellulose) (HPC)

COc1cccc2c1C(=O)c1c(O)c3c(c(O)c1C2=O)C[C@@](O)(C(=O)CO)C[C@@H]3OC1CC(NCc2ccccc2)C(O)C(C)O1 (stereo partly drawn)
T/C (dose: 15.0 mg/kg/injection, schedule: Q01DX001 (ip), vehicle: water): 156 % of control and 171 % of control
T/C (dose: 30.0 mg/kg/injection, schedule: Q01DX001 (ip), vehicle: water): 171 % of control and 175 % of control

CC(=O)NC1=C(N2CC2C)C(=O)C(NC(C)=O)=C(N2CC2C)C1=O (stereo not drawn)
T/C (dose: 0.62 mg/kg/injection, schedule: Q01DX009 (ip), vehicle: saline): 89 % of control
T/C (dose: 1.25 mg/kg/injection, schedule: Q01DX009 (ip), vehicle: saline): 105 % of control

Clc1ccc(C(Cl)(Cl)Cl)cc1Cl
T/C [1]: 103 % of control
T/C (dose: 50.0 mg/kg/injection, schedule: Q04DX003 (ip), vehicle: Klucel (hydroxypropylcellulose) (HPC)): 102 % of control
T/C [2]: 92 % of control
T/C [3]: 102 % of control
T/C [4]: 96 % of control
T/C [5]: 119 % of control

CNC(=O)Nc1nc2ccc([N+](=O)[O-])cc2[nH]1
T/C (dose: 50.0 mg/kg/injection, schedule: Q01DX009 (ip), vehicle: suspension in saline): 101 % of control
T/C (dose: 100.0 mg/kg/injection, schedule: Q01DX009 (ip), vehicle: suspension in saline): 91 % of control
T/C (dose: 200.0 mg/kg/injection, schedule: Q01DX009 (ip), vehicle: suspension in saline): 90 % of control
T/C (dose: 400.0 mg/kg/injection, schedule: Q01DX009 (ip), vehicle: suspension in saline): 91 % of control

CC(=O)C1=C(O)C2(O)C(=O)c3c(c(C)c4ccc(C)c(O)c4c3O)CC2C(N)C1=O (stereo not drawn)
T/C (dose: 1.56 mg/kg/injection, schedule: Q01DX009 (ip), vehicle: saline with Tween-80): 100 % of control
T/C (dose: 3.13 mg/kg/injection, schedule: Q01DX009 (ip), vehicle: saline with Tween-80): 95 % of control
T/C (dose: 3.75 mg/kg/injection, schedule: Q01DX009 (ip), vehicle: saline + alcohol): 103 % of control
T/C (dose: 6.25 mg/kg/injection, schedule: Q01DX009 (ip), vehicle: saline with Tween-80): 100 % of control
T/C (dose: 7.5 mg/kg/injection, schedule: Q01DX009 (ip), vehicle: saline + alcohol): 105 % of control
T/C (dose: 15.0 mg/kg/injection, schedule: Q01DX009 (ip), vehicle: saline + alcohol): 114 % of control

CCOc1c(Br)cc(Br)cc1C=C(C#N)C#N
T/C (dose: 12.5 mg/kg/injection, schedule: Q01DX009 (ip), vehicle: other): 103 % of control
T/C (dose: 25.0 mg/kg/injection, schedule: Q01DX009 (ip), vehicle: other): 98 % of control
T/C (dose: 50.0 mg/kg/injection, schedule: Q01DX009 (ip), vehicle: other): 109 % of control

CCCC1OC(/C=C/c2ccccc2)OCC1CC (stereo not drawn)
T/C [6]: 110 % of control
T/C [7]: 110 % of control
T/C [8]: 98 % of control

CCCCCCCCCCCC(=O)N(CCCC)CCCC
T/C (dose: 37.5 mg/kg/injection, schedule: Q01DX009 (ip), vehicle: Klucel (hydroxypropylcellulose) (HPC)): 101 % of control
T/C (dose: 75.0 mg/kg/injection, schedule: Q01DX009 (ip), vehicle: Klucel (hydroxypropylcellulose) (HPC)): 101 % of control
T/C (dose: 150.0 mg/kg/injection, schedule: Q01DX009 (ip), vehicle: Klucel (hydroxypropylcellulose) (HPC)): 97 % of control

CSc1sc2ccccc2[n+]1C
T/C [9]: 100 % of control
T/C [10]: 98 % of control
T/C [11]: 91 % of control

O=C(Nc1ccc(C(=O)O)cc1)Nc1nccs1
T/C (dose: 25.0 mg/kg/injection, schedule: Q01DX009 (ip), vehicle: distilled water + Tween-80): 113 % of control
T/C (dose: 100.0 mg/kg/injection, schedule: Q01DX009 (ip), vehicle: distilled water + Tween-80): 113 % of control
T/C (dose: 200.0 mg/kg/injection, schedule: Q01DX009 (ip), vehicle: distilled water + Tween-80): 113 % of control

NC(=O)NC(=O)c1cccc([N+](=O)[O-])c1
T/C [12]: 104 % of control
T/C [6]: 102 % of control
T/C [7]: 102 % of control

COc1c(Br)c2c(c(OC)c1OC)-c1ccc(OC)c(=O)cc1C(NC(C)=O)CC2 (stereo not drawn)
T/C (dose: 0.38 mg/kg/injection, schedule: Q01DX009 (ip), vehicle: Klucel (hydroxypropylcellulose) (HPC)): 113 % of control
T/C (dose: 0.75 mg/kg/injection, schedule: Q01DX009 (ip), vehicle: Klucel (hydroxypropylcellulose) (HPC)): 115 % of control
T/C (dose: 1.5 mg/kg/injection, schedule: Q01DX009 (ip), vehicle: Klucel (hydroxypropylcellulose) (HPC)): 112 % of control
T/C (dose: 3.0 mg/kg/injection, schedule: Q01DX009 (ip), vehicle: Klucel (hydroxypropylcellulose) (HPC)): 118 % of control

O=C(Nc1ccccc1)Nc1cccc(Cl)c1
T/C [12]: 100 % of control
T/C [6]: 98 % of control
T/C [7]: 96 % of control

O=C(NNc1ccccc1)c1ccccc1
T/C [13]: 97 % of control
T/C [14]: 97 % of control
T/C [15]: 93 % of control
T/C [1]: 91 % of control

CC(=O)Nc1ccc(S(=O)(=O)CO)cc1
T/C (dose: 12.5 mg/kg/injection, schedule: Q01DX009 (ip), vehicle: saline with Tween-80): 97 % of control and 110 % of control
T/C [16]: 100 % of control and 114 % of control
T/C [12]: 95 % of control and 96 % of control
T/C [6]: 92 % of control and 115 % of control
T/C [7]: 90 % of control and 110 % of control
T/C [8]: 89 % of control and 99 % of control

Cc1ccc(S(=O)(=O)N(CCO)CC(C)O)cc1 (stereo not drawn)
T/C [3]: 105 % of control
T/C [5]: 94 % of control
T/C [17]: 100 % of control

O=C(CC(O)(C(F)(F)Cl)C(F)(F)Cl)c1ccco1
T/C [16]: 100 % of control
T/C [12]: 100 % of control
T/C [6]: 105 % of control

CCOC(=O)C(C(=O)COC)C(=O)OCC
T/C (dose: 25.0 mg/kg/injection, schedule: Q01DX009 (ip), vehicle: water): 102 % of control
T/C (dose: 50.0 mg/kg/injection, schedule: Q01DX009 (ip), vehicle: water): 98 % of control
T/C (dose: 100.0 mg/kg/injection, schedule: Q01DX009 (ip), vehicle: water): 93 % of control

NC(N)=Nc1ccc(C(=O)Oc2ccc([N+](=O)[O-])cc2[N+](=O)[O-])cc1
T/C [15]: 97 % of control
T/C [1]: 91 % of control

CC(=O)Oc1ccc(Nc2c3ccccc3nc3ccccc23)cc1
T/C (dose: 1.87 mg/kg/injection, schedule: Q01DX009 (ip), vehicle: saline with Tween-80): 110 % of control
T/C (dose: 3.75 mg/kg/injection, schedule: Q01DX009 (ip), vehicle: saline with Tween-80): 114 % of control
T/C (dose: 7.5 mg/kg/injection, schedule: Q01DX009 (ip), vehicle: saline with Tween-80): 121 % of control
T/C (dose: 29.3 mg/kg/injection, schedule: Q01DX009 (ip), vehicle: saline with Tween-80): 197 % of control
T/C (dose: 30.0 mg/kg/injection, schedule: Q01DX009 (ip), vehicle: saline with Tween-80): 156 % of control and 158 % of control
T/C (dose: 40.0 mg/kg/injection, schedule: Q01DX009 (ip), vehicle: saline with Tween-80): 150 % of control

O=c1oc(-c2ccc(Cl)cc2)nc2cc(Cl)ccc12
T/C [13]: 99 % of control
T/C [14]: 93 % of control
T/C [15]: 105 % of control and 106 % of control

O=C(O)CC(NC(=O)OCc1ccccc1)C(=O)OCc1ccccc1 (stereo not drawn)
T/C [1]: 118 % of control
T/C [2]: 89 % of control
T/C [4]: 92 % of control

c1ccc(OP2OCCO2)cc1
T/C [9]: 88 % of control
T/C [10]: 100 % of control
T/C [11]: 105 % of control
T/C (dose: 200.0 mg/kg/injection, schedule: Q01DX009 (ip), vehicle: saline): 91 % of control

CC(C)(C[NH-])C[NH-].[Cl][Pt+2][Cl]
T/C (dose: 0.5 mg/kg/injection, schedule: Q04DX003 (ip), vehicle: water): 164 % of control
T/C (dose: 1.0 mg/kg/injection, schedule: Q04DX003 (ip), vehicle: water): 165 % of control and 183 % of control
T/C (dose: 2.0 mg/kg/injection, schedule: Q04DX003 (ip), vehicle: water): 161 % of control and 201 % of control
T/C (dose: 4.0 mg/kg/injection, schedule: Q04DX003 (ip), vehicle: water): 213 % of control

C=CCOCC(O)CN(C)CC1CCCO1 (stereo not drawn)
T/C [9]: 103 % of control
T/C [10]: 102 % of control
T/C [11]: 91 % of control

O=C(/C=C(\C(=O)c1ccccc1)c1ccccc1)c1ccccc1
T/C [3]: 100 % of control
T/C [5]: 100 % of control
T/C [17]: 103 % of control

Cc1ccc(NC(=O)c2ccccc2)cc1Cl
T/C [2]: 101 % of control
T/C [4]: 103 % of control
T/C (dose: 400.0 mg/kg/injection, schedule: Q01DX009 (ip), vehicle: Klucel (hydroxypropylcellulose) (HPC)): 101 % of control

CNCCOc1ccc(Cl)cc1
T/C [16]: 103 % of control
T/C [12]: 98 % of control
T/C [6]: 101 % of control
